Experimental data reported in patent publication US6503945B2, “Cationic amphiphiles containing N-hydroxyalkyl group for intracellular delivery of biologically active molecules” (Council of Scientific & Industrial Research, priority 1909, dated 2003).

System: COS-1 cells
Assay: Cell transfection assay (β-galactosidase reporter gene activity)
Format: cell-based, African green monkey
Details: compared to Lipofectamine
Description: Separate 1 mole (80 l of a 0.0126 M stock solution in chloroform) of N,N-di-n-hexadecyl-N,N-dihydroxyethylammonium bromide (DHDEAB) and 1 mole of the neutral colipid cholesterol (40 l of a 0.0255 M stock solution in chloroform) were combined in a glass vial. The solvent was evaporated initially by a thin flow of moisture free nitrogen and then under high flow for two minutes and then further dried under vacuum (1 mm Hg) for 6 hours.
The dried lipid film was then hydrated with sterile deionized water (1 ml) overnight (9-10 hours) in room temperature to produce a dispersed suspension. The hydrated mixture was then vortexed for 1 minute and was sonicated in a probe sonicator at a constant 25 W sonic power for 5 minutes. The concentrations of both DHDEAB and cholesterol in the resulting solution obtained after sonication was 1 mM. […]
For protein estimation, the resultant medium was removed from the plates and the cells were washed with PBS- Lysis buffer (1001 containing 250 mM Tris.HCl, pH 8.0, 0.5% NP40) was added and the cells were lysed for 30 minutes. […] The plates were read in an Elisa reader (Molecular Devices, Vmax) with a 650 nm filter. […]
The level of galactosidase activity in a 501 lysate was measured by adding to 501 of 2× gal mixture containing 1.33 mg/ml o-nitrophenyl--D-galactopyranoside (Sigma N1127), 200 mM sodium phosphate pH 7.15 and […]. […]

| Compound | in vitro transfection efficiencies |
| --- | --- |
| CCCCCCCCCCCCCCCC[N+](CCO)(CCO)CCCCCCCCCCCCCCCC [amphiphile No. 1, N,N-di-n-hexadecyl-N, N-dihydroxyethylammonium bromide] | enhanced |
| N,N,-di[O-hexadecanoyl]hydroxyethyl-N-hydroxyethyl-N-methylammonium bromide [amphiphile No. 5] | enhanced |
